The text below walks through data of article PMC9738632 (Molecules, 2022).

Converted amounts (≈) assume the structure as drawn. Like-named read-outs stand apart in the source and are kept apart here.

Data set [1] deals with influenza virus A/Puerto Rico/8/34 (H1N1). More on the design: method as in earlier work. The settings on record: ref 40 (table), read-out: IC50 (50% inhibitory concentration); cited from earlier work.
Data set [2] relates to MDCK cells. Further details: method as in earlier work. As to conditions: ref 40 (table), read-out: CC50 (50% cytotoxic concentration); cited from earlier work.
Data set [3] deals with DENV-4: SLMC318. Put plainly: Plaque reduction neutralization test (PRNT), DENV-4. The class given is cell-based, Dengue virus. The settings on record: DENV-4, BHK-21 cells. An excerpt:
(§1) The dengue viruses used in this study were DENV-1:VN/2017/D7709, DENV-2: 00St22A, DENV-3: SMLC50, DENV-4: SLMC318. The virus strains were supplied by the Vietnam National Institute of Hygiene and Epidemiology. The four above serotypes of the Dengue virus were propagated in BHK-21 cell lines (provided by Nagasaki University, Japan) in Eagle’s Minimum Essential Medium (EMEM; Gibco Thermo Fischer Scientific, Waltham, MA, USA) with 2% Fetal Bovine Serum (FBS; Sigma Aldrich, St. Louis, MO, USA) at 37 °C under 5% CO2 atmosphere for 5–7 days. The BHK-21 cells were cultured using 10% FBS EMEM medium.
(§2) EMEM (1 mL) containing FBS (2%) was added into each of 24-well plates (with a concentration of […] –1.0 × 10^4 cells/well). The well plates were shaken to induce the formation of identical cell layers. Afterwards, the wells were incubated at 37 °C under 5% CO2 atmosphere overnight until the cell concentration reached at 70–90%. In case this concentration was not yet reached, the incubation was allowed to continue for a further 1 to 2 days.
(§3) The compounds 4–8 and 23 were totally dissolved in EMEM with a concentration of 500 μg/mL, which was serially diluted with step 2 with EMEM containing 2% FBS; the solutions of compounds were kept at 2–8 °C. The viruses were used at the dose of 2.5 × 10^3 PFU/mL in EMEM containing 2% FBS. The virus (100 μL) was added to all the diluted samples. The virus-compounds mixtures were incubated at 37 °C under 5% CO2 atmosphere for 60 min; afterwards, the medium in all wells of the plates was removed. The virus-compounds mixture (50 μL) was added into the wells, according to the designed experimental test concentration/dilution.
(§4) The viral medium was used as the negative control. EMEM (2 mL) containing methyl cellulose (1%) was added and re-incubated at 37 °C under 5% CO2 atmosphere for 4–6 days. The typical DENV-1 and DENV-4-induced CPE appeared after 4 days of incubation, while the durations for DENV-2 and DENV-3 were 5 and 6 days, respectively. These times of incubation allowed the formation of the plaques to be visually observable and countable. The plaques can be observed under a microscope or by eyes. The cells were fixed with formalin (3.7%) for 1 h at room temperature, washed with water, and stained with crystal violet (0.25%) for 1 h at room temperature. Finally, the plaques were counted.
A general note: Plaques are areas of infected cells; plaque reduction assays count them against a control.

In data set [4] the test system is DENV-3: SMLC50. Put plainly: Plaque reduction neutralization test (PRNT), DENV-3. The settings on record: DENV-3, BHK-21 cells. The format is cell-based, Dengue virus.
Text: as §1, §2, §3, §4

The nature of data set [5]: Cytotoxic assay (MTT) against BHK-21 cells. The format is cell-based. As to conditions: hamster, read-out: CC50 (50% cytotoxic concentration). As to the method: The cytotoxic evaluation of the extracts was carried out against the BHK-21 cells. Under cultural conditions of EMEM with FBS (10%), the assaying cells were grown in 96-well bottom-transparent plates at a density of 6 × 10^4 cells/mL per well. The compounds that had been dissolved in dimethyl sulfoxide (DMSO) with six different concentrations (500, 250, 125, 62.5, 31.25, 15.625 μg/mL) were added into each well; each concentration was used in triplicate. After incubation at 37 °C under 5% CO2 atmosphere for 48 h, MTT (0.5 mg/mL) was added into each well; afterwards, 4 h incubation was carried out. The liquid in the wells was removed, and DMSO ([…]) was added to each well. The optical absorbance was recorded on a microplate reader at λ = 570 nm (Genious Tecan, Grödig, […]). The optical density in the wells was plotted against the logarithm of compound concentration, and 50% cytotoxic concentration (CC50), the compound concentration decreasing the optical density twice comparing to control wells, was calculated using the appropriate software (Table Curve 2Dv4.USA).

Data set [6] relates to P. aeruginosa. Further details: method as in doi:10.3390/M1078. The settings on record: cited from earlier work.
The subject of data set [7] is DENV-2: 00St22A. Put plainly: Plaque reduction neutralization test (PRNT), DENV-2. The class given is cell-based, Dengue virus. The settings on record: DENV-2, BHK-21 cells.
Text: as §1, §2, §3, §4

Data set [8] concerns S. aureus. Further details: method as in doi:10.3390/M1078. The settings on record: cited from earlier work.
A short description of data set [9]: Cytotoxicity assay (MTT) in MDCK cells. The settings on record: dog, read-out: CC50 (50% cytotoxic concentration). The class given is cell-based, Canine. As to the method:
(§5) Initially, maximum non-toxic concentrations were determined for compounds 1–22 to exclude their non-specific antiviral activity. The in vitro cytotoxicity of the tested compounds (CC50) was studied in the normal Madin-Darby Canine Kidney cell line (MDCK) by the MTT ((3-(4,5-dimethylthiazol-2-yl)-2,5-diphenyltetrazolium bromide) test. The highest concentration tested was […]. The cytotoxicity of oseltamivir carboxylate and rimantadine was also evaluated as these have been used as reference drugs in antiviral tests. Compounds at concentration that kills no more than 50% of cells (CC50) were used for further investigation of antiviral activity.
(§6) The MDCK cells were seeded onto 96-well culture plates (10^4 cells per well) and incubated at 36 °C in 5% CO2 until continuous monolayer formation. To assess the toxicity of the compounds, a series of their 3-fold dilutions, at concentrations of 300 to 3.7 μg/mL in Eagle’s Minimal Essential Medium (MEM), were prepared. The dilutions were added to the wells of the plates. The cells were incubated for 72 h at 36 °C in a CO2 incubator under 5% CO2. Further, a microtetrazolium (MTT) assay was performed on the 96-well plates. The cells were washed 2 times with saline (0.9% NaCl), and 100 μL/well of MTT solution [3-(4,5-dimethylthiazol-2-yl)-2,5-diphenyltetrazolium bromide] at a concentration of […] in MEM was added. The plates were incubated for 1 h at 36 °C, the liquid was removed, and dimethylsulfoxide (DMSO) (0.1 mL per well) was added. The optical density (OD) of the cells was measured on a Thermo Multiskan FC spectrophotometer (Thermo Fisher Scientific, Waltham, MA, USA) at a wavelength of 540 nm. Based on the obtained data, the CC50, the concentration of the compound that destroys 50% of the cells in the culture, was calculated for each specimen.

In data set [10] the test system is MDCK cells. Put plainly: Cytotoxicity assay (MTT) in MDCK cells. The format is cell-based, Canine. The settings on record: 72 h, read-out: CC50 (50% cytotoxic concentration). Here is the method:
as §5, §6

Data set [11] has as its system influenza virus A/Puerto Rico/8/34 (H1N1). The experiment in a line: organism not typed. The format is cell-based. As to conditions: read-out: IC50 (50% inhibitory concentration).
In data set [12] the test system is DENV-1:VN/2017/D7709. Put plainly: Plaque reduction neutralization test (PRNT), DENV-1. The settings on record: DENV-1, BHK-21 cells. The format is cell-based, Dengue virus.
Text: as §1, §2, §3, §4

In data set [13] the test system is E. coli. Further details: method as in doi:10.3390/M1078. As to conditions: cited from earlier work.

`COC(=O)[C@]12CCC(C)(C)CC1C1=CCC3[C@@]4(C)CC[C@H](N)C(C)(C)C4CC[C@@]3(C)[C@]1(C)CC2` (stereo partly drawn) [Compound 21, Methyl 3β-amino-oleanoate]: the IC50 in data set [1] is 7.9 µM. The CC50 in [2] is 18 µM.

`CC1(C)CC[C@]2(C(=O)NCCNCCN)CC[C@]3(C)C(=CCC4[C@@]5(C)CCC(=O)C(C)(C)C5CC[C@]43C)C2C1` (stereo partly drawn) [Compound 5]: the “PRNT50 DENV-4 (concentration that reduces plaque number by 50%)” value in data set [3] was “inactive”. Further, the IC50 was 433 ± 31 µM in data set [3] (Dengue virus, DENV4, read-out: PRNT50 DENV-4 (concentration that reduces plaque number by 50%)); 452 ± 26 µM in data set [4] (Dengue virus, DENV3, read-out: PRNT50 DENV-3 (concentration that reduces plaque number by 50%)); 372 ± 15 µM in [7] (Dengue virus, DENV2, read-out: PRNT50 DENV-2 (concentration that reduces plaque number by 50%)); 20 to 21 µM in data set [11] (MDCK, 72 h); more than 20 µM in data set [11]; 220 ± 14 µM in [12] (Dengue virus, DENV1, read-out: PRNT50 DENV-1 (concentration that reduces plaque number by 50%)). In addition, the “PRNT50 DENV-3 (concentration that reduces plaque number by 50%)” value in data set [4] was “inactive”. Further, the CC50 at 48 h in [5] is more than 463 µM. Moreover, the “MIC against P. aeruginosa” value in data set [6] is 50 µM (≈ 27 µg/mL). Further, in data set [7], the “PRNT50 DENV-2 (concentration that reduces plaque number by 50%)” value is “inactive”. Moreover, the “MIC against S. aureus” value in data set [8] was 12.5 µM (≈ 6.75 µg/mL). The CC50 at 72 h in data set [9] came out at 48 µM. The CC50 in data set [10] amounted to 50 ± 4 µM. Besides, the “PRNT50 DENV-1 (concentration that reduces plaque number by 50%)” value in [12] was “inactive”. The “MIC against E. coli” value in [13] was 25 µM (≈ 13.5 µg/mL).
